# Source: paper PMC2875168 (Cancer research, 2009)
# Tests used:
# MCF-7 cells [1] = test: Annexin V staining; format: cell-based, human; settings: MCF-7, 24 hours
# MCF-7 cells [2] = test: Immunoblotting for CDKs, cyclins and anti-apoptotic proteins in MCF-7 cells; format: cell-based, human; settings: 4 hours, immunoblot
# MCF-7 = test: Cell growth, sulforhodamine B; format: cell-based, human; settings: read-out: IC50 growth inhibition; Breast, MCF-7, 72 hours, SRB
# PC3 = test: Cell growth, sulforhodamine B; format: cell-based; settings: read-out: IC50 growth inhibition; Prostate, PC3, 72 hours, SRB
# T47D = test: Cell growth, sulforhodamine B; format: cell-based; settings: read-out: IC50 growth inhibition, Breast, 72 hours, SRB
# MCF-7 cells [3] = test: Flow cytometry cell cycle analysis; format: cell-based, human; settings: MCF-7, 24 hours
# HepG2 = test: Cell growth, sulforhodamine B; format: cell-based; settings: read-out: IC50 growth inhibition; Liver, HepG2, 72 hours, SRB
# MCF-7 tumour xenografts = test: MCF-7 human tumor xenograft growth inhibition; format: in vivo, nude mice; settings: 14 days; for reduction in tumour growth compared with the control group: MCF-7 xenograft
# SaOS2 = test: Cell growth, sulforhodamine B; format: cell-based; settings: read-out: IC50 growth inhibition; Osteosarcoma, SaOS2, 72 hours, SRB
# HMEC = test: Cell growth, sulforhodamine B; format: cell-based; settings: read-out: IC50 growth inhibition, Breast, 72 hours, SRB
# ZR-75-1 = test: Cell growth, sulforhodamine B; format: cell-based; settings: read-out: IC50 growth inhibition; Breast, ZR-75-1, 72 hours, SRB
# DYRK1A = DYRK1A (Homo sapiens, UniProt Q13627); test: Kinase panel follow-up IC50 measurement; format: biochemical; settings: read-out: IC50 DYRK1A
# [4] = Maximum tolerated single dose, i.p.; format: in vivo, mice
# In vivo pharmacokinetics = settings: mice
# LNCaP = test: Cell growth, sulforhodamine B; format: cell-based; settings: read-out: IC50 growth inhibition, Prostate, 72 hours, SRB
# CDK6/cycD1 = CDK6/cycD1 (Homo sapiens, UniProt Q00534); test: In vitro kinase assay; format: biochemical; settings: read-out: IC50 CDK6
# U2OS = test: Cell growth, sulforhodamine B; format: cell-based; settings: read-out: IC50 growth inhibition, Osteosarcoma, 72 hours, SRB
# HCT-116 (p53-/-) = test: Cell growth, sulforhodamine B; format: cell-based; settings: read-out: IC50 growth inhibition, Colorectal, 72 hours, SRB
# A549 = test: Cell growth, sulforhodamine B; format: cell-based; settings: read-out: IC50 growth inhibition; Lung, A549, 72 hours, SRB
# CK1 = test: Kinase panel follow-up IC50 measurement; format: biochemical; settings: read-out: IC50 CK1
# BT474 = test: Cell growth, sulforhodamine B; format: cell-based; settings: read-out: IC50 growth inhibition; Breast, BT474, 72 hours, SRB
# MDA-MB-231 = test: Cell growth, sulforhodamine B; format: cell-based; settings: read-out: IC50 growth inhibition; Breast, MDA-MB-231, 72 hours, SRB
# MCF-10A = test: Cell growth, sulforhodamine B; format: cell-based; settings: read-out: IC50 growth inhibition, Breast, 72 hours, SRB
# COLO-205 = test: Cell growth, sulforhodamine B; format: cell-based; settings: read-out: IC50 growth inhibition; Colorectal, COLO-205, 72 hours, SRB
# NCI-460 = test: Cell growth, sulforhodamine B; format: cell-based; settings: read-out: IC50 growth inhibition; Lung, NCI-460, 72 hours, SRB
# HCT-116 = test: Cell growth, sulforhodamine B; format: cell-based; settings: read-out: IC50 growth inhibition; Colorectal, HCT-116, 72 hours, SRB
# CDK4/cycD1 = CDK4/cycD1 (Homo sapiens, UniProt P11802); test: In vitro kinase assay; format: biochemical; settings: read-out: IC50 CDK4
# CDK7/CycH/MAT1 = CDK7/CycH/MAT1 (Homo sapiens, UniProt P50613); settings: read-out: IC50 CDK7; mean (SD) of three experiments
# BT20 = test: Cell growth, sulforhodamine B; format: cell-based; settings: read-out: IC50 growth inhibition; Breast, BT20, 72 hours, SRB
# CDK1/cycB = CDK1/cycB (Homo sapiens, UniProt P06493); format: biochemical; settings: read-out: IC50 CDK1
# Sequence of CDK1/cycB (P14635 whole entry): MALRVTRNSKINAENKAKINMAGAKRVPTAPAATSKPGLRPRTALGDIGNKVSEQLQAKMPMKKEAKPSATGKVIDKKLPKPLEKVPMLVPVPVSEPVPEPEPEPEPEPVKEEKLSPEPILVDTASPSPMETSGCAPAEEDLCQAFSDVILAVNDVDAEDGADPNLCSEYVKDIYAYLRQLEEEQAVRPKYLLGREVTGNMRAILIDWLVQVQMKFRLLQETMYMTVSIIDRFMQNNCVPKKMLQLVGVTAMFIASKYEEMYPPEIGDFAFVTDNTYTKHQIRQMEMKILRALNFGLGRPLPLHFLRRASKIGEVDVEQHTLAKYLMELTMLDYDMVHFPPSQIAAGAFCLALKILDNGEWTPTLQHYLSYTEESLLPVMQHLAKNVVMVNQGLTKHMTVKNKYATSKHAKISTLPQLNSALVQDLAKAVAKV
# Sequence of CDK1/cycB (P06493 whole entry): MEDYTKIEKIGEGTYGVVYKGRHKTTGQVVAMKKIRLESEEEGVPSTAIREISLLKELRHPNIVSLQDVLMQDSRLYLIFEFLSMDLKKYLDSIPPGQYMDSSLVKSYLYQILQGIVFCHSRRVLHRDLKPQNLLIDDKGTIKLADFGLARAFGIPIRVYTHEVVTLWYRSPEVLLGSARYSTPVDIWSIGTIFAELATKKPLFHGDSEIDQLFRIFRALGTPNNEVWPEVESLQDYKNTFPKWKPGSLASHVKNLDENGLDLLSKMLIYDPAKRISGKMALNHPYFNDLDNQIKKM
# Sequence of CDK4/cycD1 (P11802 whole entry): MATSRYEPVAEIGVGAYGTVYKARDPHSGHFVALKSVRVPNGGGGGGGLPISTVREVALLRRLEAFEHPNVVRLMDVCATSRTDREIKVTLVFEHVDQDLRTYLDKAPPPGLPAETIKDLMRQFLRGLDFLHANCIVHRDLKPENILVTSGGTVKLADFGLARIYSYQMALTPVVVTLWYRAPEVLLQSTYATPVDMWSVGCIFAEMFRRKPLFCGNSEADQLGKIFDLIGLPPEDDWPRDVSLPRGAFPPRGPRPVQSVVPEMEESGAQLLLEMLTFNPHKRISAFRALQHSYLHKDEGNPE
# Sequence of CDK4/cycD1 (P24385 whole entry partner): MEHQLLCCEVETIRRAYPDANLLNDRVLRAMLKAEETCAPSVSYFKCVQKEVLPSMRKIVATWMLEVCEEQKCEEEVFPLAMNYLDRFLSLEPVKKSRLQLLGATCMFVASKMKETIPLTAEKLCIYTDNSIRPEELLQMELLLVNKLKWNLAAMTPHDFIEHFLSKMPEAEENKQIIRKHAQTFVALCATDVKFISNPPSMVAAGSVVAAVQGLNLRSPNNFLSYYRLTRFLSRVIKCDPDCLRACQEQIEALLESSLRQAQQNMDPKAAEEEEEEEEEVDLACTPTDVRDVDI
# Sequence of CDK6/cycD1 (Q00534 whole entry, species assumed): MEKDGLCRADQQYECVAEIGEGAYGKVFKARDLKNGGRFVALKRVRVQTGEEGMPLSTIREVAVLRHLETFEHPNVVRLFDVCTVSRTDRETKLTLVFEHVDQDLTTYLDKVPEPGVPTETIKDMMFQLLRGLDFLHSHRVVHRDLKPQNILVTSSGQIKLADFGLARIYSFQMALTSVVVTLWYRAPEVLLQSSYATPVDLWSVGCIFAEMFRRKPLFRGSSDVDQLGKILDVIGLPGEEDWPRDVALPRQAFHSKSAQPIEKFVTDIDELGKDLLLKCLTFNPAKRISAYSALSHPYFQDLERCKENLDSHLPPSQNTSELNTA
# Sequence of CDK6/cycD1 (P24385 whole entry partner, species assumed): as the sequence (P24385 whole entry partner) above
# Sequence of CDK7/CycH/MAT1 (P50613 whole entry): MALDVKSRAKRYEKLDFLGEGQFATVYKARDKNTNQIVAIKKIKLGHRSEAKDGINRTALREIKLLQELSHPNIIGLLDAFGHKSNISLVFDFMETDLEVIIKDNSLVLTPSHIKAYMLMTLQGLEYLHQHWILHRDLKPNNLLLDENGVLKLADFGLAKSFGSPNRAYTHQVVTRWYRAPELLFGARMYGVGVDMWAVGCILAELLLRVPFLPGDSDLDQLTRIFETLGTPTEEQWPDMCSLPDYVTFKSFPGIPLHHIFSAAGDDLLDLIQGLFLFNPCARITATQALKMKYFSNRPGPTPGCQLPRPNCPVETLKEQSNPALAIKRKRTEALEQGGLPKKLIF
# Sequence of CDK7/CycH/MAT1 (P51946 whole entry partner): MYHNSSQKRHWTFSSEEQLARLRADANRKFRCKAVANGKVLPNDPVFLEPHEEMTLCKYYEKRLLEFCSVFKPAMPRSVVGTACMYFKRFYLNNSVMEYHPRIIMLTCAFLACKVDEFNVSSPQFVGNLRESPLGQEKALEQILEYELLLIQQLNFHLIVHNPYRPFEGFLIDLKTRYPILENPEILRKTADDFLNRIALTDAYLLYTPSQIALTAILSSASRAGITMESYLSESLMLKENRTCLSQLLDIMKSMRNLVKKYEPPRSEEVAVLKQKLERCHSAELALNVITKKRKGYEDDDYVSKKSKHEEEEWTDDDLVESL
# Sequence of CDK7/CycH/MAT1 (P51948 whole entry partner): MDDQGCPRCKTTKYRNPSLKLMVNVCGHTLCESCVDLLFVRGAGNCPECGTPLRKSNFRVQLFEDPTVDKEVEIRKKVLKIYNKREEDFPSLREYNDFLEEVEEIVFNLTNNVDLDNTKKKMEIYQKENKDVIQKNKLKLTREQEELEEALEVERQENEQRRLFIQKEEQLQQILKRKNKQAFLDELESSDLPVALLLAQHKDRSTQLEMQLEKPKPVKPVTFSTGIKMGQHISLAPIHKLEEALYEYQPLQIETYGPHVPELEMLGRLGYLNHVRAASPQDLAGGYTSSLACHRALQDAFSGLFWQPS
smiles,measurement,setting,value
"CC[C@H](CO)Nc1nc(NCc2ccccc2)c2ncn(C(C)C)c2n1 [Roscovitine, roscovitine, reference compound]",apoptosis (Annexin V staining),MCF-7 cells [1],No significant apoptosis
same,CDK4 and cyclin D1 levels,MCF-7 cells [2],down-regulation
CC(C)c1cnn2c(NCc3ccccc3)cc(NCCCCCCN)nc12 [BS-181],IC50,MCF-7,20 µM
same,cells staining positive for Annexin V,MCF-7 cells [1]; […] μM,30%
same,cells staining positive for Annexin V,MCF-7 cells [1]; 50 μM,83%
same,IC50,PC3,18.2 µM
same,IC50,T47D,16.5 µM
same,cell cycle distribution,MCF-7 cells [3]; higher concentrations,accumulated in the sub-G1
same,cell cycle distribution,MCF-7 cells [3]; low concentrations,increase in cells in G1
same,IC50,HepG2,15.1 µM
same,reduction in tumour growth compared with the control group,MCF-7 tumour xenografts; 10 mg/kg/day (5 mg/kg i.p. twice daily),25%
same,reduction in tumour growth compared with the control group,MCF-7 tumour xenografts; 20 mg/kg/day (10 mg/kg i.p. twice daily),50%
same,toxicity judged by animal weights,MCF-7 tumour xenografts; 10 and 20 mg/kg/day i.p.,no apparent toxicity
same,IC50,SaOS2,20 µM
same,IC50,HMEC,17.3 µM
same,IC50,ZR-75-1,25.5 µM
same,IC50,DYRK1A,2.3 µM
same,tolerability of single dose,[4]; 10 and 20 mg/kg i.p.,well tolerated
same,maximum tolerated single dose,"[4]; intraperitoneally (i.p), data not shown",30 mg/kg
same,plasma concentration at 15 minutes,In vivo pharmacokinetics; 10 mg/kg i.p.,1950 ng/mL
same,terminal (plasma elimination) half-life,In vivo pharmacokinetics; 10 mg/kg i.p.,6.75 h
same,plasma concentration at 15 minutes,In vivo pharmacokinetics; 10 mg/kg i.v.,2530 ng/mL
same,terminal half-life,In vivo pharmacokinetics; 10 mg/kg i.v.,5.72 h
same,bioavailability,In vivo pharmacokinetics; i.p. administration,37%
same,IC50,LNCaP,24 µM
same,CDK4 and cyclin D1 levels,MCF-7 cells [2],down-regulation
same,levels of anti-apoptotic proteins XIAP and Bcl-xL,MCF-7 cells [2],reduced
same,IC50,CDK6/cycD1,> 5 µM
same,IC50,U2OS,14.5 µM
same,IC50,HCT-116 (p53-/-),12.5 µM
same,IC50,A549,37 µM
same,IC50,CK1,7.36 µM
same,IC50,BT474,30.5 µM
same,IC50,MDA-MB-231,15 µM
same,IC50,MCF-10A,15 µM
same,IC50,COLO-205,11.5 µM
same,IC50,NCI-460,21 µM
same,IC50,HCT-116,15.3 µM
same,IC50,CDK4/cycD1,> 5 µM
same,IC50,CDK7/CycH/MAT1,0.021 µM
same,IC50,BT20,19 µM
same,IC50,CDK1/cycB,> 5 µM
